Data published in patent US7232828B2, “PPAR Ligands that do not cause fluid retention, edema or congestive heart failure” (Bethesda Pharmaceuticals, Inc., priority 2002, dated 2007).
pEC50: −log10 of the molar value. “Also recorded” adds a separate entry of the source. Read-outs that look alike come from different tables or passages of the source. Blank lines part the entries; values can stand above or below the molecule they belong to.

Legend:
[1] = system: mouse preadipocyte cell line (3T3-L1); assay: In vitro adipocyte differentiation (adipogenesis) activity; assay type: cell-based
Description: The following examples 2 and 3 provide a generic means to measure adipocyte differentation to determine if one has an insulin-sensitizing agent. […] The cells are then plated at 1.5×10^4/cm^2 in a 96-well tissue culture plate (view plate, 96 white, Packard) coated with type 1 collagen. […] The compounds added from a stock solution of dimethyl sulfoxide (DMSO). […] DMSO (0.1%) was added to the control cultures. The medium was replaced with maintenance medium (DMEM supplemented with 5% of FBS and 100 ng/mL of insulin), and the cells cultured for 2 more days. Activity of stimulation of adipogenesis was determined by exposure of the cells to [14-C]-acetic acid (7.4 kBq/mL), and uptake of [14-C]-acetic acid monitored after 1 h of incubation. The medium is discarded and the cells washed twice with phosphate-buffered saline. The cells are air-dried, and […] of scintillation cocktail (Microscint-20, Packard) added to the wells, and counted with a Packard TopCount microplate scintillation counter.

[2] = Clinical trial in a patient with hypertension, hypertriglyceridemia and type 2 diabetes
[3] = conventional oral dosing; cited from earlier work
[4] = Clinical trial in a patient with osteoarthritis and inflammation (elevated CRP); assay type: in vivo, human; conditions: for Serum CRP level: baseline 7.9
Text: A person with osteoarthritis and inflammation as judged by elevated C-reactive protein (CRP) levels was selected for therapy.

PPARγ = molecular target: T1, PPARγ (Homo sapiens, UniProt P37231); assay: PPARγ transactivation assay in transfected CV-1 cells (luciferase reporter); assay type: cell-based; conditions: for Activation of PPARγ (in words): at doses reasonably achievable at therapeutic doses
T1 construct: expressed in transfected cells; host or cells: CV-1 cells (CCL-70, ATCC)
T1 sequence (P37231 1-505): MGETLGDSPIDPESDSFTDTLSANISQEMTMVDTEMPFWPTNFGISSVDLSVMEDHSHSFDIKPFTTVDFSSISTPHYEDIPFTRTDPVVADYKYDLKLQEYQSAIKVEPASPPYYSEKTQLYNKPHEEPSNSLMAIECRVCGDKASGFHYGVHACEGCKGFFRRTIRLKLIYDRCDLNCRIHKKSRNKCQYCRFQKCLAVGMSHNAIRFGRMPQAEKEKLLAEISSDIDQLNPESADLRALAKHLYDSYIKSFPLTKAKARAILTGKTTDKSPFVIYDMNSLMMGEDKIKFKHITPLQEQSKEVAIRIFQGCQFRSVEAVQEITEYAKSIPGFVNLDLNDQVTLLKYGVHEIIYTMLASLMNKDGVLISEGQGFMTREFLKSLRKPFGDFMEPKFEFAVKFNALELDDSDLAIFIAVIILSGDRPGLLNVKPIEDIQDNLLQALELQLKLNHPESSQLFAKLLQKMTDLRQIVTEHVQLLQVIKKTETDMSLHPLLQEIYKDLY
Description: ARBs, or derivatives thereof, may be tested for their ability to activate the various PPAR isoforms by utilizing standard screening methods known to those skilled in the art including but not limited to cell based transactivation assays or cell free assays that test the ability of a compound to activate a PPAR construct by measuring the output of a reporter signal that reflects the extent of the PPAR activation. For example, the angiotensin receptor blocker telmisartan is added to the culture media of CV1 cells or other cells that can be transfected with a full length or partial PPAR cDNA sequence together with a reporter construct containing a PPAR response element or other appropriate response element fused to a reporter gene such as luciferase. […] Cell extracts were assayed for luciferase and β-galactosidase activity using Promega (Madison, Wis.) assay systems. All treatments were performed in triplicate, and normalized for β-galactosidase activity. Agonist concentrations yielding half maximal activation (EC50 values) were calculated using GraphPad Prism version 3.03 (GraphPad Software, Inc., San Diego, Calif.).

[5] = assay type: in vivo, human
Text: Insulin resistance is defined as a state in which circulating insulin levels in excess of the normal response to a glucose load are required to maintain the euglycemic state (Ford ES, et al. JAMA. (2002) 287:356-9). Insulin resistance, and the response of a patient with insulin resistance to therapy, may be quantified by assessing the homeostasis model assessment to insulin resistance (HOMA-IR) score, a reliable indicator of insulin resistance (Katsuki A, et al. Diabetes Care 2001;24:362-5). The estimate of insulin resistance by the homeostasis assessment model (HOMA)-IR score is calculated with the formula (Galvin P, et al. Diabet Med 1992;9:921-8): HOMA-IR=[fasting serum insulin (μU/mL)]×[fasting plasma glucose (mmol/L)/22.5]
A person with the metabolic syndrome was selected for therapy. […] The patient has the metabolic syndrome as defined by the National Cholesterol Education Program. The metabolic syndrome is associated with a 5-9 fold increase in the risk for developing type 2 diabetes and a 2-3 fold increase risk in cardiovascular mortality.

human preadipocytes = conditions: high concentrations; cited from earlier work
[6] = obese Zucker rat, oral, extremely high dose; cited from earlier work
[7] = patients with mild hypertension; cited from earlier work
[8] = 160 mg/day oral, after seven weeks

SMILES: CCCc1nc2c(C)cc(-c3nc4ccccc4n3C)cc2n1Cc1ccc(-c2ccccc2C(=O)O)cc1 [telmisartan]
Promotion of adipogenesis (in words) [1]: promote adipogenesis | HDL cholesterol ([2]; 80 mg/day oral, after three weeks, baseline 48): 50 mg/dL | Blood pressure ([2]; 80 mg/day oral, after three weeks, baseline 160/90): 143/91 | Fasting glucose ([2]; 80 mg/day oral, after three weeks, baseline 183): 188 mg/dL | Triglyceride ([2]; 80 mg/day oral, after three weeks, baseline 264): 281 mg/dL | Blood pressure [2, 8]: 131/81 | Glucose level [2, 8]: 145 mg/dL | HDL cholesterol [2, 8]: 60 mg/dL | Triglyceride level [2, 8]: 178 mg/dL | Blood HDL-cholesterol (in words) ([2]; patient with type 2 diabetes): elevated blood HDL-cholesterol | Hyperglycemia (in words) ([2]; patient with type 2 diabetes): lowered the hyperglycemia | Plasma triglycerides (in words) ([2]; patient with type 2 diabetes): lowers plasma triglycerides | Fluid retention, peripheral edema, pulmonary edema, congestive heart failure on clinical examination ([2]; type 2 diabetes patient, 160 mg/day): no evidence of any increase in fluid retention, peripheral edema, pulmonary edema, or congestive heart failure | Concentrations that can be achieved in plasma [3]: 1000 to 5000 nM | Serum CRP level ([4]; 80 mg/day oral, after 6 weeks): 4.1 mg/L | Symptoms of inflammation and osteoarthritis ([4]; 80 mg/day oral, after 9 weeks): stabilized | Serum CRP level ([4]; 80 mg/day oral, after 9 weeks): 3.9 mg/L | Fluid retention, peripheral edema, pulmonary edema, congestive heart failure on clinical examination ([4]; osteoarthritis patient, 80 mg/day): no evidence of any increase in fluid retention, peripheral edema, pulmonary edema, or congestive heart failure | Activation of PPARγ / luciferase reporter gene activity (in words) (PPARγ): can activate PPARγ; also recorded: significant increase in reporter gene activity | pEC50 (PPARγ): 5.25 | PPARγ activation relative to maximum level of activity achieved by full agonists pioglitazone and rosiglitazone (PPARγ; CV-1 cells): 25%-30% | PPARγ activation (fold) (PPARγ; tested at 1-5 μM, CV-1 cells, 24 hr): 5-8 fold | Diagnostic criteria of the metabolic syndrome (NCEP) ([5]; 80 mg/day oral, after two weeks): no longer meets the diagnostic criteria of the metabolic syndrome | Fasting glucose ([5]; 80 mg/day oral, after two weeks, baseline 118): 105 mg/dL | Fasting triglyceride level ([5]; 80 mg/day oral, after two weeks, baseline 129): 115 mg/dL | Blood pressure ([5]; 80 mg/day oral, after two weeks, baseline 160/79): 130/69 | Insulin resistance as determined by HOMA-IR score (in words) ([5]; patient with the metabolic syndrome): improved insulin resistance

Activation of PPARγ (in words) (PPARγ): do not activate PPARγ
SMILES: CCCCc1ncc(/C=C(\Cc2cccs2)C(=O)O)n1Cc1ccc(C(=O)O)cc1 [eprosartan]
Promotion of adipogenesis (in words) [1]: did not promote adipogenesis

PPARγ activation (fold activation) (PPARγ; tested at 10 μM, CV-1 cells): 2-3 fold
SMILES: CCCCC1=NC2(CCCC2)C(=O)N1Cc1ccc(-c2ccccc2-c2nnn[nH]2)cc1 [irbesartan]
Adipogenesis (human preadipocytes): can enhance adipogenesis | Insulin sensitivity [6]: improved insulin sensitivity | Lipid levels [6]: failed to improve lipid levels | Activation of PPARγ / luciferase reporter gene activity (in words) (PPARγ): can activate PPARγ; also recorded: found to activate PPARgamma

SMILES: CCCCc1nc(Cl)c(CO)n1Cc1ccc(-c2ccccc2-c2nn[nH]n2)cc1 [losartan]
Effect on glucose metabolism, insulin sensitivity, and serum concentrations [7]: neutral effect

Activation of PPARγ (in words) (PPARγ): do not activate PPARγ
SMILES: CCCCC(=O)N(Cc1ccc(-c2ccccc2-c2nnn[nH]2)cc1)[C@H](C(=O)O)C(C)C [valsartan]
Promotion of adipogenesis (in words) [1]: did not promote adipogenesis
